Experiments:
ALYREF [1] = biological target: T1, ALYREF (Mus musculus, UniProt O08583, DEL113-113); assay: cellular thermal shift assay (also DARTS in lysate); assay type: cell-based; conditions: Flag-tagged mutant transfected into mouse cardiomyocytes
T1 construct: full length; endogenous in neonatal mouse cardiomyocytes (wild type); Flag-tagged plasmids transfected into the cardiomyocytes for the deletion mutants

[2] = biological target: ALYREF (purified recombinant, pSMARt‐I‐ALYREF) (Mus musculus, UniProt O08583); assay: in vitro droplet (phase separation) assay, microscopy; assay type: biochemical; conditions: 250 mmol/L Tris pH 8.0, 10% PEG-8000, room temperature
ALYREF [3] = biological target: T2, ALYREF (Mus musculus, UniProt O08583); assay: cellular thermal shift assay (also DARTS in lysate); assay type: cell-based; conditions: mouse cardiomyocytes; 40 to 67 °C, 3 min; vs DMSO
T2 construct: full length; endogenous in neonatal mouse cardiomyocytes (wild type); Flag-tagged plasmids transfected into the cardiomyocytes for the deletion mutants

ALYREF [4] = biological target: T3, ALYREF (Mus musculus, UniProt O08583, DEL171-171); assay: as above; assay type: cell-based; conditions: Flag-tagged mutant transfected into mouse cardiomyocytes
T3 construct: full length; endogenous in neonatal mouse cardiomyocytes (wild type); Flag-tagged plasmids transfected into the cardiomyocytes for the deletion mutants

COc1cccc2c1C(=O)c1c(O)c3c(c(O)c1C2=O)C[C@@](O)(C(=O)CO)C[C@@H]3O[C@H]1C[C@H](N)[C@H](O)[C@H](C)O1 [doxorubicin]
binding retained (DARTS, CESTA) (ALYREF [1]): DOX remained capable of binding to the ΔD113 mutant
droplet disruption [2]: also disrupted by DOX, which caused droplet disintegration and structural irregularity
thermal stability (CESTA) (ALYREF [3]): DOX treatment significantly increased the thermal stability of ALYREF compared with the DMSO control
binding abolished (DARTS, CESTA) (ALYREF [4]): Deletion of D171 abolished the interaction between ALYREF and DOX

Source: PMC12631900, “Preservation of ALYREF Phase Separation Mitigates Doxorubicin‐Induced Cardiomyocyte DNA Damage and Cardiotoxicity” (Advanced Science, 2025)
